Columns and labels:
Assay type in all cases: in vivo
Parameters in all cases: key: 5: completely killed; 4: seriously injured; 3: considerably injured; 2: somewhat injured; 1: slightly injured; 0: not injured (normally grown)
rice [1] = assay: Experiment 2 foliage treatment: rice; settings: 4 weeks after treatment
Description: (§1) Upon seedling stage (two- or three-leaved stage) of rice, cockspur (Panicum crus-galli), garden radish, aobiyu (slender amaranth, Amaranthus viridis) and mehishiba (henry crabgrass, Digitaria cliaris) which were grown on a cultivated soil put in pots of 1/15500 ares, a selected compound obtained in a manner analogous to Example 8, in suspended wettable powder, was sprayed to each plant. After that, the pots were kept in a glass chamber to allow each plant to grow, and after the lapse of 4 weeks from the treatment with the selected compounds the herbicidal effects were evaluated. The evaluation of the herbicidal effects was similarly conducted as to that of Experiment 1.

[2] = system: cockspur (Panicum crus-galli); assay: Experiment 2 foliage treatment: cockspur; settings: 4 weeks after treatment
Description: as §1

garden radish [3] = assay: Experiment 2 foliage treatment: garden radish; settings: 4 weeks after treatment
Description: as §1

[4] = system: aobiyu (slender amaranth, Amaranthus viridis); assay: Experiment 2 foliage treatment: aobiyu; settings: 4 weeks after treatment
Description: as §1

[5] = system: mehishiba (henry crabgrass, Digitaria cliaris); assay: Experiment 2 foliage treatment: mehishiba; settings: 4 weeks after treatment
Description: as §1

rice [6] = assay: Experiment 5 foliage treatment: rice; settings: foliage spray of wettable powder suspension, evaluated 4 weeks after treatment
Description: as §1, with “11,” for “8,”, “as” for “as to”

[7] = system: cockspur (Panicum crus-galli); assay: Experiment 5 foliage treatment: cockspur; settings: foliage spray of wettable powder suspension, evaluated 4 weeks after treatment
Description: as §1, with “11,” for “8,”, “as” for “as to”

garden radish [8] = assay: Experiment 5 foliage treatment: garden radish; settings: foliage spray of wettable powder suspension, evaluated 4 weeks after treatment
Description: as §1, with “11,” for “8,”, “as” for “as to”

[9] = system: aobiyu (slender amaranth, Amaranthus viridis); assay: Experiment 5 foliage treatment: aobiyu; settings: foliage spray of wettable powder suspension, evaluated 4 weeks after treatment
Description: as §1, with “11,” for “8,”, “as” for “as to”

[10] = system: mehishiba (henry crabgrass, Digitaria cliaris); assay: Experiment 5 foliage treatment: mehishiba; settings: foliage spray of wettable powder suspension, evaluated 4 weeks after treatment
Description: as §1, with “11,” for “8,”, “as” for “as to”

rice [11] = assay: Experiment 8 foliage treatment: rice; settings: foliage spray of wettable powder suspension, evaluated 4 weeks after treatment
Description: as §1, with “14,” for “8,”

[12] = system: cockspur (Panicum crus-galli); assay: Experiment 8 foliage treatment: cockspur; settings: foliage spray of wettable powder suspension, evaluated 4 weeks after treatment
Description: as §1, with “14,” for “8,”

garden radish [13] = assay: Experiment 8 foliage treatment: garden radish; settings: foliage spray of wettable powder suspension, evaluated 4 weeks after treatment
Description: as §1, with “14,” for “8,”

[14] = system: aobiyu (slender amaranth, Amaranthus viridis); assay: Experiment 8 foliage treatment: aobiyu; settings: foliage spray of wettable powder suspension, evaluated 4 weeks after treatment
Description: as §1, with “14,” for “8,”

[15] = system: mehishiba (henry crabgrass, Digitaria cliaris); assay: Experiment 8 foliage treatment: mehishiba; settings: foliage spray of wettable powder suspension, evaluated 4 weeks after treatment
Description: as §1, with “14,” for “8,”

paddy rice = assay: Experiment 4 flooded soil treatment: injury to paddy rice; settings: 4 weeks after treatment
Description: (§2) Paddy soil (clay loam) was put into a pot so as to have a surface area of 1/15500 ares. Uniformly mixed seeds of several kinds of weeds, viz., nobie (barnyardgrass, Echinochloa spp.), broad-leaved weeds, hotarui (bulrush, Scirpus juncoides) and tamagayatsuri (small-flowered umbrellaplant, Cyperus difformis), were sown in the surface layer of the soil in each pot, and then paddy rice seedlings at the two- or three-leaved stage were transplanted into each pot to a depth of 2 cm, and water was fed into each pot so as to provide a 3 cm deep water layer on the soil surface. After 3 days, in other words at the initial stage of germination of nobie (barnyardgrass, Echinochloa spp.), a predetermined amount of a selected compound obtained in a manner analogous to Example 11 in the form of diluted aqueous solution was dropped into the water layer in each pot. After that, the pots were kept in a glass chamber to allow the paddy rice and the weeds to grow, and after the lapse of 4 weeks from the treatment with the selected compounds, the herbicidal effects and the degree of injury to the paddy rice were evaluated. The evaluation of the herbicidal effects was similarly conducted as to that of Experiment 1.

[16] = system: nobie (barnyardgrass, Echinochloa spp.); assay: Experiment 4 flooded soil treatment: nobie; settings: 4 weeks after treatment
Description: as §2

broad-leaved weeds = assay: Experiment 4 flooded soil treatment: broad-leaved weeds; settings: 4 weeks after treatment
Description: as §2

[17] = system: hotarui (bulrush, Scirpus juncoides); assay: Experiment 4 flooded soil treatment: hotarui; settings: 4 weeks after treatment
Description: as §2

[18] = system: tamagayatsuri (small-flowered umbrellaplant, Cyperus difformis); assay: Experiment 4 flooded soil treatment: tamagayatsuri; settings: 4 weeks after treatment
Description: as §2

CCC(=O)Nc1ccc(Cl)c(Cl)c1 [Comparative agentB, Propanil, reference compound]
Herbicidal Effect rice (rice [1]; 40 g/10a): 0
Herbicidal Effect rice (rice [1]; 80 g/10a): 0
Herbicidal Effect cockspur ([2]; 40 g/10a): 0
Herbicidal Effect cockspur ([2]; 80 g/10a): 0
Herbicidal Effect garden radish (garden radish [3]; 40 g/10a): 3
Herbicidal Effect garden radish (garden radish [3]; 80 g/10a): 4
Herbicidal Effect aobiyu ([4]; 40 g/10a): 5
Herbicidal Effect aobiyu ([4]; 80 g/10a): 5
Herbicidal Effect mehishiba ([5]; 40 g/10a): 1
Herbicidal Effect mehishiba ([5]; 80 g/10a): 1
Herbicidal Effect rice (rice [6]; 40 g/10a): 0
Herbicidal Effect rice (rice [6]; 80 g/10a): 0
Herbicidal Effect cockspur ([7]; 40 g/10a): 0
Herbicidal Effect cockspur ([7]; 80 g/10a): 0
Herbicidal Effect garden radish (garden radish [8]; 40 g/10a): 3
Herbicidal Effect garden radish (garden radish [8]; 80 g/10a): 4
Herbicidal Effect aobiyu ([9]; 40 g/10a): 5
Herbicidal Effect aobiyu ([9]; 80 g/10a): 5
Herbicidal Effect mehishiba ([10]; 40 g/10a): 1
Herbicidal Effect mehishiba ([10]; 80 g/10a): 1
Herbicidal Effect rice (rice [11]; 40 g/10a): 0
Herbicidal Effect rice (rice [11]; 80 g/10a): 0
Herbicidal Effect cockspur ([12]; 40 g/10a): 1
Herbicidal Effect cockspur ([12]; 80 g/10a): 1
Herbicidal Effect garden radish (garden radish [13]; 40 g/10a): 1
Herbicidal Effect garden radish (garden radish [13]; 80 g/10a): 3
Herbicidal Effect aobiyu ([14]; 40 g/10a): 5
Herbicidal Effect aobiyu ([14]; 80 g/10a): 5
Herbicidal Effect mehishiba ([15]; 40 g/10a): 0
Herbicidal Effect mehishiba ([15]; 80 g/10a): 1

CCCCOC(=O)C1=C(C(=O)N(C(C)=O)c2cc(SCC(=O)OCC)c(Cl)cc2F)CCCC1 [compound 39]
Herbicidal Effect rice (rice [1]; 40 g/10a): 1
Herbicidal Effect rice (rice [1]; 80 g/10a): 1
Herbicidal Effect cockspur ([2]; 40 g/10a): 1
Herbicidal Effect cockspur ([2]; 80 g/10a): 1
Herbicidal Effect garden radish (garden radish [3]; 40 g/10a): 5
Herbicidal Effect garden radish (garden radish [3]; 80 g/10a): 5
Herbicidal Effect aobiyu ([4]; 40 g/10a): 5
Herbicidal Effect aobiyu ([4]; 80 g/10a): 5
Herbicidal Effect mehishiba ([5]; 40 g/10a): 1
Herbicidal Effect mehishiba ([5]; 80 g/10a): 1

C#CC(C)Oc1cc(N(C(=O)C2=C(C(=O)OCCOC)CCCC2)C(=O)c2cccnc2)c(Cl)cc1Cl (centres unmarked) [compound 71]
Injury of Paddy (paddy rice; 3.13 g/10a): 0
Injury of Paddy (paddy rice; 6.25 g/10a): 0
Herbicidal Effect nobie ([16]; 3.13 g/10a): 5
Herbicidal Effect nobie ([16]; 6.25 g/10a): 5
Herbicidal Effect broad-leaved weed (broad-leaved weeds; 3.13 g/10a): 5
Herbicidal Effect broad-leaved weed (broad-leaved weeds; 6.25 g/10a): 5
Herbicidal Effect hotarui ([17]; 3.13 g/10a): 4
Herbicidal Effect hotarui ([17]; 6.25 g/10a): 4
Herbicidal Effect tamagayatsuri ([18]; 3.13 g/10a): 5
Herbicidal Effect tamagayatsuri ([18]; 6.25 g/10a): 5
Herbicidal Effect rice (rice [6]; 40 g/10a): 1
Herbicidal Effect rice (rice [6]; 80 g/10a): 1
Herbicidal Effect cockspur ([7]; 40 g/10a): 1
Herbicidal Effect cockspur ([7]; 80 g/10a): 1
Herbicidal Effect garden radish (garden radish [8]; 40 g/10a): 4
Herbicidal Effect garden radish (garden radish [8]; 80 g/10a): 5
Herbicidal Effect aobiyu ([9]; 40 g/10a): 5
Herbicidal Effect aobiyu ([9]; 80 g/10a): 5
Herbicidal Effect mehishiba ([10]; 40 g/10a): 2
Herbicidal Effect mehishiba ([10]; 80 g/10a): 2

COCCOC(=O)C1=C(C(=O)N(C(=O)c2cccnc2)c2cc(C(=O)OC)c(Cl)cc2F)CCCC1 [compound 65]
Injury of Paddy (paddy rice; 3.13 g/10a): 0
Injury of Paddy (paddy rice; 6.25 g/10a): 0
Herbicidal Effect nobie ([16]; 3.13 g/10a): 5
Herbicidal Effect nobie ([16]; 6.25 g/10a): 5
Herbicidal Effect broad-leaved weed (broad-leaved weeds; 3.13 g/10a): 5
Herbicidal Effect broad-leaved weed (broad-leaved weeds; 6.25 g/10a): 5
Herbicidal Effect hotarui ([17]; 3.13 g/10a): 4
Herbicidal Effect hotarui ([17]; 6.25 g/10a): 4
Herbicidal Effect tamagayatsuri ([18]; 3.13 g/10a): 4
Herbicidal Effect tamagayatsuri ([18]; 6.25 g/10a): 4
Herbicidal Effect rice (rice [6]; 40 g/10a): 1
Herbicidal Effect rice (rice [6]; 80 g/10a): 1
Herbicidal Effect cockspur ([7]; 40 g/10a): 1
Herbicidal Effect cockspur ([7]; 80 g/10a): 1
Herbicidal Effect garden radish (garden radish [8]; 40 g/10a): 5
Herbicidal Effect garden radish (garden radish [8]; 80 g/10a): 5
Herbicidal Effect aobiyu ([9]; 40 g/10a): 5
Herbicidal Effect aobiyu ([9]; 80 g/10a): 5
Herbicidal Effect mehishiba ([10]; 40 g/10a): 1
Herbicidal Effect mehishiba ([10]; 80 g/10a): 1

C#CC(C)Oc1cc(N(C(=O)C2=C(C(=O)OCCCC)CCCC2)C(=O)c2cccnc2)c(F)cc1Cl (centres unmarked) [compound 59]
Injury of Paddy (paddy rice; 3.13 g/10a): 0.5
Injury of Paddy (paddy rice; 6.25 g/10a): 0.5
Herbicidal Effect nobie ([16]; 3.13 g/10a): 5
Herbicidal Effect nobie ([16]; 6.25 g/10a): 5
Herbicidal Effect broad-leaved weed (broad-leaved weeds; 3.13 g/10a): 5
Herbicidal Effect broad-leaved weed (broad-leaved weeds; 6.25 g/10a): 5
Herbicidal Effect hotarui ([17]; 3.13 g/10a): 4
Herbicidal Effect hotarui ([17]; 6.25 g/10a): 4
Herbicidal Effect tamagayatsuri ([18]; 3.13 g/10a): 5
Herbicidal Effect tamagayatsuri ([18]; 6.25 g/10a): 5
Herbicidal Effect rice (rice [6]; 40 g/10a): 1
Herbicidal Effect rice (rice [6]; 80 g/10a): 1
Herbicidal Effect cockspur ([7]; 40 g/10a): 0
Herbicidal Effect cockspur ([7]; 80 g/10a): 1
Herbicidal Effect garden radish (garden radish [8]; 40 g/10a): 5
Herbicidal Effect garden radish (garden radish [8]; 80 g/10a): 5
Herbicidal Effect aobiyu ([9]; 40 g/10a): 5
Herbicidal Effect aobiyu ([9]; 80 g/10a): 5
Herbicidal Effect mehishiba ([10]; 40 g/10a): 1
Herbicidal Effect mehishiba ([10]; 80 g/10a): 1

CCCCOC(=O)CSc1cc(N(C(C)=O)C(=O)C2=C(C(=O)OCCCC)CCCC2)c(F)cc1Cl [compound 40]
Herbicidal Effect rice (rice [1]; 40 g/10a): 1
Herbicidal Effect rice (rice [1]; 80 g/10a): 1
Herbicidal Effect cockspur ([2]; 40 g/10a): 1
Herbicidal Effect cockspur ([2]; 80 g/10a): 1
Herbicidal Effect garden radish (garden radish [3]; 40 g/10a): 5
Herbicidal Effect garden radish (garden radish [3]; 80 g/10a): 5
Herbicidal Effect aobiyu ([4]; 40 g/10a): 5
Herbicidal Effect aobiyu ([4]; 80 g/10a): 5
Herbicidal Effect mehishiba ([5]; 40 g/10a): 1
Herbicidal Effect mehishiba ([5]; 80 g/10a): 1
